Experimental data published in patent US8282926B2, “CCR5-specific antibodies with HIV neutralizing activity that recognize a linear dodecapeptide that mimics a conformational epitope in the second extracellular loop of CCR5” (The United States of America, as Represented by the …, priority 2004, dated 2012).

Columns and labels:
mAb 2D7 [1] = experiment: Peptide ELISA: mAb 2D7 binding to biotinylated peptides captured on streptavidin; design: species or system mouse; conditions: for binding of mAb 2D7 to peptide in ELISA: biotinylated peptide captured by streptavidin
Description: The bound antibodies were quantified by HRP-conjugated goat anti-mouse IgG antibody. […] Microtiter wells, coated with mAb 2D7 at 200 ng/well, were incubated with serially diluted synthetic 2D7-2SK peptide or with a control peptide (CGRAARIGFPGAYTTKNG) (SEQ ID NO:3) for 30 min at room temperature, p2D7-2SK phages were then added to all wells (10^9 phages/well), followed by addition of HRP-conjugated anti-phage antibodies. […] MAb 2D7 (50 ng/100 μl/well) was added to plates coated with either unmodified biotin-2D7-2SK peptide or mutated biotin-2D7-2SK peptide derivatives (Table 1), all captured on streptavidin coated wells. The bound 2D7 antibodies were quantified by HRP-conjugated goat anti-mouse IgG antibody. The absorbance value (0.49) of mAb 2D7 binding to 2D7-2SK peptide (unmodified) is represented as 100% control binding.
A. Materials. […] Monoclonal antibody (mAb) 2D7 was purchased from BD Pharmingen (San Diego, Calif.). Immunoglobulin and HRP (horseradish peroxidase) conjugated secondary antibodies used for ELISA were obtained from Jackson Immuno Research Laboratories (West Grove, Pa.). Buffers and substrates for ELISA were purchased from KPL Biotech (Gaithersburg, Md.). New Zealand Rabbits were procured from Charles River (Wilmington, Mass.). B. Epitope mapping using phage display library. A random, linear, dodecapeptide-phage display library (Ph.D-12, New England Biolabs) was used for mAb 2D7 epitope mapping. Affinity selection of the phage clones from the random peptide library was carried out per the manufacturer's instructions with minor modifications. Microtiter wells were coated with 200 ng mAb 2D7 in 100 μl PBS, pH 7.4, at 4° C. for 12 h followed by 1 h at room temperature (RT). The wells were washed with PBS containing 0.05% Tween-20 (PBST) and blocked with EMEM containing 5% FBS at RT for 2 h. The phage library (1×10^10 phages/100 μl) was added to the blocked wells and incubated at RT for 1 h. Unbound phages were washed-off with ten washes of PBST followed by three washes with PBS. The bound phages were eluted at low pH by incubation with elution buffer (0.1 N Gly.HCl, pH 2.2 containing 1 mg/ml BSA) at 37° C. for 10 min. Eluent phages were neutralised with 6 μl of 2 M Tris (pH unadjusted) per 100 μl phage eluate. After four rounds of biopanning, the phage clones were analysed by DNA sequencing and affinity-capture phage ELISA. C. Phage ELISA. Phages used for ELISA were derived from clones selected after the fourth round of panning. Microtiter plates coated with 200 ng of mAb 2D7 were blocked with EMEM containing 5% FBS (blocking solution). The phages (10^10/100 μl/well) diluted in blocking solution were then added and incubated for 1 h at room temperature (RT). The plates were washed three times with PBST prior to addition of […] anti-phage antibody (GE Healthcare, Piscataway, N.J.), and the reaction was quantified using ABTS substrate. Absorbance was measured at 405 nm. D. Peptide ELISA. Peptides were biotinylated using maleimide PEO2-Biotin reagent as per manufacturer's instructions (Pierce Biotech, Rockford, Ill.). The biotinylated peptide ([…]) was captured onto wells coated with 200 ng of streptavidin. After blocking with EMEM containing 5% FBS, serial dilutions of mAb 2D7 in blocking solution were added to each well, incubated for 1 hr at RT, followed by addition of peroxidase-conjugated goat anti-mouse IgG. The reaction was quantified using ABTS substrate. Absorbance was measured at 405 nm. […]

[2] = system: PM1 (CD4+/CCR5+) cells and 12E1 cells expressing HIV-1 envelope; experiment: Fusion-inhibition (syncytium-formation) assay, PM1 cells with 12E1 cells expressing HIV-1 envelope; type: cell-based, human
mAb 2D7 [3] = experiment: Competition phage ELISA using synthetic peptides; type: binding, mouse; conditions: free peptide, FIG. 3B
2D7-2SK peptide = experiment: Peptide ELISA: antibody binding to biotinylated 2D7-2SK peptide; conditions: ELISA / binding assay
Description: IgG antibodies from rabbit immunized subcutaneously with KLH-conjugated 2D7-2SK peptide were used in peptide and Cell ELISA. […] Specific antibody binding was measured by HRP-conjugated goat anti-rabbit IgG antibody.
A. Materials. […] Monoclonal antibody (mAb) 2D7 was purchased from BD Pharmingen (San Diego, Calif.). Immunoglobulin and HRP (horseradish peroxidase) conjugated secondary antibodies used for ELISA were obtained from Jackson Immuno Research Laboratories (West Grove, Pa.). Buffers and substrates for ELISA were purchased from KPL Biotech (Gaithersburg, Md.). New Zealand Rabbits were procured from Charles River (Wilmington, Mass.). B. Epitope mapping using phage display library. A random, linear, dodecapeptide-phage display library (Ph.D-12, New England Biolabs) was used for mAb 2D7 epitope mapping. Affinity selection of the phage clones from the random peptide library was carried out per the manufacturer's instructions with minor modifications. […] After four rounds of biopanning, the phage clones were analysed by DNA sequencing and affinity-capture phage ELISA. […] The plates were washed three times with PBST prior to addition of […] anti-phage antibody (GE Healthcare, Piscataway, N.J.), and the reaction was quantified using ABTS substrate. Absorbance was measured at 405 nm. […] The reaction was quantified using ABTS substrate. Absorbance was measured at 405 nm. […]

## E-W-Q-R-E-G-L-V-T-L-W-L-G-G-G-G-S-C (EWQREGLVTLWLGGGGSC) [2D7-2SK-K4R]
mAb 2D7 [1]
  binding of mAb 2D7 to peptide in ELISA: completely lost binding

## F-C-A-L-D-G-D-F-G-W-L-A-P-A-C (FCALDGDFGWLAPAC) [MD23, reference compound]
mAb 2D7 [1]
  binding of mAb 2D7 to peptide in ELISA: did not bind

## E-W-Q-K-E-G-L-V-T-L-W-L-G-G-G-G-S-C (EWQKEGLVTLWLGGGGSC) [2D7-2SK]
[2]; peptide alone
  inhibitory activity of peptide by itself in the fusion assay: did not demonstrate any inhibitory activity
mAb 2D7 [1]
  binding of mAb 2D7 to peptide in ELISA: concentration-dependent specific reactivity
mAb 2D7 [1]; mAb 2D7 50 ng/100 μl/well, represented as 100% control binding, FIG. 3C
  absorbance value of mAb 2D7 binding to peptide: 0.49
mAb 2D7 [3]
  inhibition of binding of phage p2D7-2SK to mAb 2D7-coated plates: inhibited

## Q-L-W-L-G-W-T-E-L-E-G-V-K-G-G-G-S-C (QLWLGWTELEGVKGGGSC) [2D7-2SK-SCR, reference compound]
mAb 2D7 [1]
  binding of mAb 2D7 to peptide in ELISA: not

B1: ScFv-SK-34: single chain human monoclonal antibody against peptide 2D7-2SK; VH SEQ ID NO:12, VL SEQ ID NO:14 (antibody, listed as Homo sapiens, V domains shown)
VH: EVQLLESGGGLVQPGGSLRLSCAASGFTFDDYGMSWVRQAPGKGLEWVSVISASGGSTYYADSVNGRFTISRDNSKNTLYLQMNSLRAEDTAVYYCARYLPGLWAMDVWGQGTLVTVSSGSA
VL: DIVLTQPPSASGTPGQRVTISCTGSRSNIGKNYVSWYQQLPGKAPKLLIYKNYQRPSGVPDRFSGSKSGTSASLAISGLRSEDEADYYCAAWDDSLSGWVFGGSTQLTVLA
[2]; R5 HIV-1 envelopes, human CCR5 expressing cells
  inhibition of HIV syncytia formation, in words: positive
2D7-2SK peptide
  binding to 2D7-2SK peptide: bind preferentially and with high affinity
